Tested on: human hepatocytes
Test: Human Hepatocyte Stability Assay
Assay type: in vitro ADME
Details: comparison table with known compounds; head prints "(units)", L/hr/kg from the method
Method: The human […] stability of the compounds as predicted hepatocyte clearance in L/hr/kg was assessed. Compounds to be tested were diluted to 200 μM (4 μl of 10 mM DMSO stock into 196 μl ACN:H2O (50:50). Propranolol was used as a positive control, and buffer only without hepatocytes as 0% control. These were further diluted 4 μl with 891 μl KHB buffer (InVitroGRO catalog number Z99074) to provide 2× dosing solution. To each well of 24 well plate, 250 μl of the 2× dosing solution was added to each well with 250 μl of hepatocytes cells (1×10^6 viable cells/ml per well) or KHB for control samples to achieve a final compound concentration of 1 μM during incubation. The final solvent concentration was 0.01% DMSO and 0.25% ACN. The culture plate was placed on a rocker and incubated at 37° C., 5% CO2. Samples were collected at time 0, 1, 3, and 6 hours. The loss of parent compound was determined using LC-MS methods against a standard curve.

| SMILES | Hheps CL [mL/min/kg] |
| --- | --- |
| COc1ccc(Nc2nc(-c3cccc(N)c3)cn3ccnc23)cc1OC [6-(3-aminophenyl)-N-(3,4-dimethoxyphenyl)imidazo[1,2-a]pyrazin-8-amine, reference compound] | 4 |
| Cc1ncc(-c2cn3ccnc3c(Nc3ccc(N4CCOCC4)cc3)n2)cc1N [6-(5-amino-6-methylpyridin-3-yl)-N-(4-morpholinophenyl)imidazo[1,2-a]pyrazin-8-amine, reference compound] | 13.3 |
| Nc1cncc(-c2cn3ccnc3c(Nc3ccc(N4CCOCC4)cc3)n2)c1 [6-(5-aminopyridin-3-yl)-N-(4-morpholinophenyl)imidazo[1,2-a]pyrazin-8-amine, reference compound] | 11.3 |
| COc1ccc(Nc2nc(-c3ccc(N)nc3)cn3ccnc23)cc1OC [6-(6-aminopyridin-3-yl)-N-(3,4-dimethoxyphenyl)imidazo[1,2-a]pyrazin-8-amine, reference compound] | 15 |
| Nc1cncc(-c2cn3ccnc3c(Nc3ccc(N4CCO[C@@H](CO)C4)cc3)n2)n1 [Ex.-3, (R)-(4-(4-((6-(6-aminopyrazin-2-yl)imidazo[1,2-a]pyrazin-8-yl)amino)phenyl)morpholin-2-yl)methanol] | 1.5 |
| Nc1cncc(-c2cn3ccnc3c(Nc3ccc(N4CCN(CC(CO)CO)CC4)cc3)n2)n1 [Ex.-6, 2-((4-(4-((6-(6-aminopyrazin-2-yl)imidazo[1,2-a]pyrazin-8-yl)amino)phenyl)piperazin-1-yl)methyl)propane-1,3-diol] | 1.3 |
| Cc1ncc(-c2cn3ccnc3c(Nc3ccc(N4CCN(C5COC5)CC4)c(OCCO)c3)n2)nc1N [Ex.-7, 2-(5-((6-(6-amino-5-methylpyrazin-2-yl)imidazo[1,2-a]pyrazin-8-yl)amino)-2-(4-(oxetan-3-yl)piperazin-1-yl)phenoxy)ethanol] | 0.83 |

Results, then the compound that gave them:

| Hheps CL [mL/min/kg] | SMILES |
| --- | --- |
| 2 | Cc1ncc(-c2cn3ccnc3c(Nc3ccc(N4CCN(C5COC5)CC4)cc3)n2)nc1N [Ex.-1, 6-(6-amino-5-methylpyrazin-2-yl)-N-(4-(4-(oxetan-3-yl)piperazin-1-yl)phenyl)imidazo[1,2-a]pyrazin-8-amine] |
| 0.917 | Nc1cncc(-c2cn3ccnc3c(Nc3ccc(N4CCN(C5COC5)CC4)cc3)n2)n1 [Ex.-2, 6-(6-aminopyrazin-2-yl)-N-(4-(4-(oxetan-3-yl)piperazin-1-yl)phenyl)imidazo[1,2-a]pyrazin-8-amine] |
| 1.3 | Cc1c(-c2cncc(N)n2)nc(Nc2ccc(N3CCN(C4COC4)CC3)cc2)c2nccn12 [Ex.-4, 6-(6-aminopyrazin-2-yl)-5-methyl-N-(4-(4-(oxetan-3-yl)piperazin-1-yl)phenyl)imidazo[1,2-a]pyrazin-8-amine] |
| 1.2 | Nc1cncc(-c2cn3ccnc3c(Nc3ccc(N4CCN(C5COC5)CC4)c(OCCO)c3)n2)n1 [Ex.-5, 2-(5-((6-(6-aminopyrazin-2-yl)imidazo[1,2-a]pyrazin-8-yl)amino)-2-(4-(oxetan-3-yl)piperazin-1-yl)phenoxy)ethanol] |

From patent publication US11517570B2 (Kronos Bio, Inc., priority 2013, dated 2022)
